Experimental data: US10294202B2, “Pyrrolidinones as herbicides” (FMC Corporation, priority 2013, dated 2019)

Columns and labels:
wheat = assay: Test A pre-/postemergence herbicide test; type: in vivo, Triticum aestivum; details: for Plant response rating, Wheat: 0 to 100 scale
In short: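 Both application timings used compounds in a non-phytotoxic solvent plus surfactant. Pre-emergence: soil sprayed directly after seeding into loam/sand. Post-emergence: foliage of 2–10 cm seedlings (1–2 leaves) sprayed. Injury rated ~10 days later, 0–100.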

ryegrass, Italian = assay: Test C pre-/postemergence herbicide test; type: in vivo, Lolium multiflorum
In short: (§1)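 Herbicidal effect was judged by eye 13 to 15 days after treatment in the greenhouse, using a 0–100 scale against controls. Chemicals in a non-phytotoxic solvent with surfactant were sprayed onto planted loam/sand soil or onto plants 2 to 18 cm tall in a peat-based growing medium.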

corn = assay: Test C pre-/postemergence herbicide test; type: in vivo, Zea mays
In short: as §1

johnsongrass = assay: Test C pre-/postemergence herbicide test; type: in vivo, Sorghum halepense
Description: (§2) Seeds of plant species selected from blackgrass (Alopecurus myosuroides), ryegrass, Italian (Italian ryegrass, Lolium multiflorum), wheat (winter wheat, Triticum aestivum), galium (catchweed bedstraw, Galium aparine), corn (Zea mays), crabgrass, large (large crabgrass, Digitaria sanguinalis), foxtail, giant (giant foxtail, Setaria faberii), johnsongrass (Sorghum halepense), lambsquarters (Chenopodium album), morningglory (Ipomoea coccinea), nutsedge, yellow (yellow nutsedge, Cyperus esculentus), pigweed (Amaranthus retroflexus), ragweed (common ragweed, Ambrosia elatior), soybean (Glycine max), barnyardgrass (Echinochloa crus-galli), oilseed rape (Brassica napus), waterhemp (common waterhemp, Amaranthus rudis), kochia (Kochia scoparia), oat, wild (wild oat, Avena fatua), surinam grass (Brachiaria decumbens), foxtail, green (green foxtail, Setaria viridis), goosegrass (Eleusine indica), bromegrass, downy (downy bromegrass, Bromus tectorum), nightshade (eastern black nightshade, Solanum ptycanthum), cocklebur (common cocklebur, Xanthium strumarium), cupgrass, woolly (woolly cupgrass, Eriochloa villosa), bermudagrass (Cynodon dactylon), sunflower, (common oilseed sunflower, Helianthus annuus), Russian thistle (Salsola kali) and velvetleaf (Abutilon theophrasti) were planted into a blend of loam soil and sand and treated preemergence with test chemicals formulated in a non-phytotoxic solvent mixture which included a surfactant. At the same time, plants selected from these crop and weed species and also barley (winter barley, Hordeum vulgare), […]), chickweed (common chickweed, Stellaria media), deadnettle (henbit deadnettle, Lamium amplexicaule), and canarygrass (littleseed canarygrass, Phalaris minor) were planted in pots containing Redi-Earth® planting medium (Scotts Company, 14111 Scottslawn Road, Marysville, Ohio 43041) comprising spaghnum peat moss, vermiculite, wetting agent and starter nutrients and treated with postemergence applications of test chemicals formulated in the same manner. Plants ranged in height from 2 to 18 cm (1- to 4-leaf stage) for postemergence treatments. Treated plants and controls were maintained in a greenhouse for 13 to 15 days, after which time all species were compared to controls and visually evaluated. Plant response ratings, summarized in Table C, are based on a scale of 0 to 100 where 0 is no effect and 100 is complete control. A dash (-) response means no test result.

nutsedge, yellow = assay: Test C pre-/postemergence herbicide test; type: in vivo, Cyperus esculentus
Description: as §2

pigweed = assay: Test C pre-/postemergence herbicide test; type: in vivo, Amaranthus retroflexus
In short: as §1

ragweed = assay: Test C pre-/postemergence herbicide test; type: in vivo, Ambrosia elatior
Description: as §2

soybean = assay: Test C pre-/postemergence herbicide test; type: in vivo, Glycine max
Description: as §2

oilseed rape = assay: Test C pre-/postemergence herbicide test; type: in vivo, Brassica napus
Description: as §2

[1] = Postemergence, 125 g ai/ha, 0 is no effect, 100 is complete control
[2] = Preemergence, 31 g ai/ha, scale 0 to 100, 0 is no effect and 100 is complete control
[3] = Preemergence, 62 g ai/ha, scale 0 to 100 (0 no effect, 100 complete control)
[4] = Preemergence, 125 g ai/ha, scale 0 to 100 (0 no effect, 100 complete control)
[5] = Preemergence, 16 g ai/ha, scale 0 to 100
[6] = Postemergence, 31 g ai/ha, scale 0 to 100 (0 no effect, 100 complete control)
[7] = Postemergence, 62 g ai/ha, scale 0 (no effect) to 100 (complete control)
[8] = Postemergence, 125 g ai/ha, scale 0 to 100 (0 no effect, 100 complete control)
[9] = Postemergence, 250 g ai/ha, scale 0 to 100 (0 no effect, 100 complete control)

## O=C1NCC(c2cccc(C(F)(F)F)c2)C1C(=O)Nc1ccccc1Cl (racemic) [Compound 189]
wheat; 125 g ai/ha, visual rating, 0 no effect, 100 complete control, approximately 10 days, preemergence
  Plant response rating, Wheat: 0
wheat; [1]
  Plant response rating, Wheat: 0
wheat; Postemergence, 500 g ai/ha
  Wheat plant response rating (0 to 100 scale, 0 is no effect, 100 is complete control): 0
wheat; preemergence, 500 g ai/ha, 0 is no effect and 100 is complete control
  Plant response rating, Wheat: 20
ryegrass, Italian; [2]
  Ryegrass, Italian plant response rating: 0
ryegrass, Italian; [3]
  Ryegrass, Italian plant response rating: 30
ryegrass, Italian; [4]
  Plant response rating, Ryegrass, Italian: 45
ryegrass, Italian; [5]
  Plant response rating, Ryegrass, Italian: 0
corn; [2]
  Corn plant response rating: 0
corn; [3]
  Corn plant response rating: 0
corn; [4]
  Plant response rating, Corn: 40
corn; [5]
  Plant response rating, Corn: 0
johnsongrass; [2]
  Johnsongrass plant response rating: 0
johnsongrass; [3]
  Johnsongrass plant response rating: 0
johnsongrass; [4]
  Plant response rating, Johnsongrass: 15
johnsongrass; [5]
  Plant response rating, Johnsongrass: 0
nutsedge, yellow; [2]
  Nutsedge, Yellow plant response rating: 0
nutsedge, yellow; [3]
  Nutsedge, Yellow plant response rating: 0
nutsedge, yellow; [4]
  Plant response rating, Nutsedge, Yellow: 0
nutsedge, yellow; [5]
  Plant response rating, Nutsedge, Yellow: 0
pigweed; [2]
  Pigweed plant response rating: 0
pigweed; [3]
  Pigweed plant response rating: 0
pigweed; [4]
  Plant response rating, Pigweed: 0
pigweed; [5]
  Plant response rating, Pigweed: 0
ragweed; [2]
  Ragweed plant response rating: 0
ragweed; [3]
  Ragweed plant response rating: 0
ragweed; [4]
  Plant response rating, Ragweed: 0
ragweed; [5]
  Plant response rating, Ragweed: 0
soybean; [2]
  Soybean plant response rating: 5
soybean; [3]
  Soybean plant response rating: 10
soybean; [4]
  Plant response rating, Soybean: 0
soybean; [5]
  Plant response rating, Soybean: 0
Oilseed rape; [2]
  Oilseed Rape plant response rating: 0
Oilseed rape; [3]
  Oilseed Rape plant response rating: 0
Oilseed rape; [4]
  Plant response rating, Oilseed Rape: 20
Oilseed rape; [5]
  Plant response rating, Oilseed Rape: 0

## O=C1NCC(c2cccc(C(F)(F)F)c2)C1C(=O)Nc1ccc(F)cc1F (racemic) [Compound 207]
wheat; [1]
  Plant response rating, Wheat: 0
wheat; Postemergence, 500 g ai/ha
  Wheat plant response rating (0 to 100 scale, 0 is no effect, 100 is complete control): 60
ryegrass, Italian; [6]
  Plant response rating, Ryegrass, Italian: 0
ryegrass, Italian; [7]
  Plant response rating, Ryegrass, Italian: 0
ryegrass, Italian; [8]
  Plant response rating, Ryegrass, Italian: 0
ryegrass, Italian; [9]
  Plant response rating, Ryegrass, Italian: 0
ryegrass, Italian; [2]
  Ryegrass, Italian plant response rating: 0
ryegrass, Italian; [3]
  Ryegrass, Italian plant response rating: 0
ryegrass, Italian; [4]
  Plant response rating, Ryegrass, Italian: 0
ryegrass, Italian; Preemergence, 250 g ai/ha
  Plant response rating (scale of 0 to 100), Ryegrass, Italian: 0
corn; [6]
  Plant response rating, Corn: 0
corn; [7]
  Plant response rating, Corn: 0
corn; [8]
  Plant response rating, Corn: 0
corn; [9]
  Plant response rating, Corn: 5
corn; [2]
  Corn plant response rating: 0
corn; [3]
  Corn plant response rating: 0
corn; [4]
  Plant response rating, Corn: 55
corn; Preemergence, 250 g ai/ha
  Plant response rating (scale of 0 to 100), Corn: 30
johnsongrass; [6]
  Plant response rating, Johnsongrass: 0
johnsongrass; [7]
  Plant response rating, Johnsongrass: 0
johnsongrass; [8]
  Plant response rating, Johnsongrass: 0
johnsongrass; [9]
  Plant response rating, Johnsongrass: 0
johnsongrass; [2]
  Johnsongrass plant response rating: 0
johnsongrass; [3]
  Johnsongrass plant response rating: 0
johnsongrass; [4]
  Plant response rating, Johnsongrass: 30
johnsongrass; Preemergence, 250 g ai/ha
  Plant response rating (scale of 0 to 100), Johnsongrass: 60
nutsedge, yellow; [6]
  Plant response rating, Nutsedge, Yellow: 10
nutsedge, yellow; [7]
  Plant response rating, Nutsedge, Yellow: 0
nutsedge, yellow; [8]
  Plant response rating, Nutsedge, Yellow: 0
nutsedge, yellow; [9]
  Plant response rating, Nutsedge, Yellow: 0
nutsedge, yellow; [2]
  Nutsedge, Yellow plant response rating: 0
nutsedge, yellow; [3]
  Nutsedge, Yellow plant response rating: 0
nutsedge, yellow; [4]
  Plant response rating, Nutsedge, Yellow: 0
nutsedge, yellow; Preemergence, 250 g ai/ha
  Plant response rating (scale of 0 to 100), Nutsedge, Yellow: 0
pigweed; [6]
  Plant response rating, Pigweed: 0
pigweed; [7]
  Plant response rating, Pigweed: 10
pigweed; [8]
  Plant response rating, Pigweed: 10
pigweed; [9]
  Plant response rating, Pigweed: 20
pigweed; [2]
  Pigweed plant response rating: 0
pigweed; [3]
  Pigweed plant response rating: 0
pigweed; [4]
  Plant response rating, Pigweed: 0
pigweed; Preemergence, 250 g ai/ha
  Plant response rating (scale of 0 to 100), Pigweed: 0
ragweed; [6]
  Plant response rating, Ragweed: 0
ragweed; [7]
  Plant response rating, Ragweed: 0
ragweed; [8]
  Plant response rating, Ragweed: 0
ragweed; [9]
  Plant response rating, Ragweed: 15
ragweed; [2]
  Ragweed plant response rating: 0
ragweed; [3]
  Ragweed plant response rating: 0
ragweed; [4]
  Plant response rating, Ragweed: 0
ragweed; Preemergence, 250 g ai/ha
  Plant response rating (scale of 0 to 100), Ragweed: 5
soybean; [6]
  Plant response rating, Soybean: 0
soybean; [7]
  Plant response rating, Soybean: 5
soybean; [8]
  Plant response rating, Soybean: 5
soybean; [9]
  Plant response rating, Soybean: 5
soybean; [2]
  Soybean plant response rating: 0
soybean; [3]
  Soybean plant response rating: 0
soybean; [4]
  Plant response rating, Soybean: 0
soybean; Preemergence, 250 g ai/ha
  Plant response rating (scale of 0 to 100), Soybean: 0
Oilseed rape; [6]
  Plant response rating, Oilseed Rape: 0
Oilseed rape; [7]
  Plant response rating, Oilseed Rape: 0
Oilseed rape; [8]
  Plant response rating, Oilseed Rape: 10
Oilseed rape; [9]
  Plant response rating, Oilseed Rape: 30
Oilseed rape; [2]
  Oilseed Rape plant response rating: 0
Oilseed rape; [3]
  Oilseed Rape plant response rating: 0
Oilseed rape; [4]
  Plant response rating, Oilseed Rape: 0
Oilseed rape; Preemergence, 250 g ai/ha
  Plant response rating (scale of 0 to 100), Oilseed Rape: 80
